One assay has as its system HT-29. Briefly: cells. As to conditions: read-out: IC50 ± S.D.; 48 hours, HT-29; cell proliferation inhibition, MTT, 48-h incubation, 1.5 × 10^3 cells/well, triplicate, mean ± SD. The method, then: (§1) HUVECs (human umbilical vein endothelial cells) were cultured in EGM™-2 BulletKit™ supplemented with SingleQuots™ (supplements: growth factors, cytokines, antibiotics; Lonza) and 10% FBS (catalog no. FFBS-500; Scientifix). Both HT-29 and MCF-7 cells were cultured in 10% FBS/DMEM (Dulbecco’s Modified Eagle Medium) with 1% penicillin–streptomycin (5000 U/mL; Life Technologies), whereas PC3 cells (prostate cancer cells) were cultured in 10% FBS/RPMI (Roswell Park Memorial Institute) 1640 with 1% penicillin–streptomycin (5000 U/mL; Life Technologies). All cells were maintained at 37 °C in 5% CO2.
(§2) Cell cytotoxicity and proliferation assays were performed using similar methods to those described by Chan et al.[45]. All cells were maintained using the media conditions described above, and passages two to ten were used for all cell lines. For all cell lines, 5.0 × 10^3 cells/well (100 μL) and 1.5 × 10^3 cells/well (100 μL) were used for cell cytotoxicity and cell proliferation assays, respectively. All peptides (10 μL, at final concentrations ranging from 0.05–100 μM) and drugs, which included cilengitide, octreotide and sunitinib (at final concentrations ranging from 0.00001–100 μM), were used in both assays. Triton X-100 (0.1% (v/v); 10 μL) was used as a positive control. Cells were treated with fresh media the day after plating, before the addition of peptides, followed by a subsequent 2-h and 48-h incubation for cell cytotoxicity and cell proliferation, respectively. After different incubation periods, 3-(4, 5-dimethylthiazolyl-2)-2,5-diphenyltetrazolium bromide (MTT) (10 μL; 5 mg/mL in PBS) was added, and cells were incubated for a further 4 h. The supernatant was then removed and 100 μL DMSO added to solubilize formazan salts. Experiments were performed in triplicate. Cell numbers were recorded at 600 nm. All data represent average mean ± SD.

For another assay, the system named is HUVEC. In words: cells. As to conditions: read-out: IC50 ± S.D.; 48 hours, HUVEC; cell proliferation inhibition, MTT, 48-h incubation, 1.5 × 10^3 cells/well, triplicate, mean ± SD. As for the experimental part: as §1, §2
Another assay has as its system MCF-7. In words: cells. To be noted: read-out: IC50 ± S.D.; 48 hours, MCF-7; cell proliferation inhibition, MTT, 48-h incubation, 1.5 × 10^3 cells/well, triplicate, mean ± SD. As for the experimental part: as §1, §2
In the next assay the test system is PC3. Briefly: cells. To be noted: read-out: IC50 ± S.D.; 48 hours, PC3; cell proliferation inhibition, MTT, 48-h incubation, 1.5 × 10^3 cells/well, triplicate, mean ± SD. As for the experimental part: as §1, §2
The subject of the next assay is HUVEC migration. Briefly: VEGF-mediated HUVEC transwell migration assay. The class given is cell-based, human. As to conditions: transwell, 0.3 nM VEGF in bottom chamber, normalized to VEGF control = 100% migration, n ≥ 3; read-out: concentration giving 50% inhibition of HUVEC migration. The method, then:
Figure 5 Cell migration on VEGF-mediated HUVECs. The percentage of HUVEC migration was analyzed using Prism Version 6 (GraphPad). (A–T) VEGF was used as a positive control with 100% HUVEC migration. All peptides were tested at concentrations ranging from 0.001–50 μM except for cilengitide and octreotide, which were tested in 10-fold dilutions from 10 μM. Peptides were added in the presence of 0.3 nM VEGF (bottom chamber). Data are shown as mean ± SD (n ≥ 3). Data were normalized to the mean VEGF control. P-values are represented as follows: ****p ≤ 0.0001, ***p ≤ 0.001, **p ≤ 0.01, and *p ≤ 0.05.
A cell migration assay was performed as described by Chan et al.[45] HUVECs between passages three and ten were used. Briefly, initial peptide concentrations of 10–500 μM were prepared for all peptides except SFTI-SST-01, MCo-SST-01, SFTI-SST-02, MCo-SST-02, SFTI-PEDF, MCo-PEDF (0.01–500 μM), cilengitide, octreotide, and MCoAA-02 (1 × 10^−7 M–100 μM). To the apical well, 100 μL of 1 × 10^5 cells/well were seeded and 600 μL of medium supplemented with or without 0.3 nM VEGF (Sigma, catalogue no. V7259) was added to the basolateral well. The well containing cells with 0.1% FBS/EGM-2 basal medium was used as a negative control, and the well containing cells with 0.3 nM VEGF was used as a positive control. All peptides were stimulated with 0.3 nM VEGF. Experiments were done in triplicate. […]

Bridge positions count the residues as written; N and C are the ends. Square brackets hold non-standard residues; d marks the D form. Peptide text beside a SMILES is read from it.

Regarding `CC[C@H](C)[C@@H]1NC(=O)[C@@H]2CSSC[C@@H]3NC(=O)[C@H](C(C)C)NC(=O)CNC(=O)CNC(=O)[C@H](CC(=O)O)NC(=O)[C@H](CO)NC(=O)CNC(=O)[C@H](CO)NC(=O)CNC(=O)[C@@H]4CSSC[C@H](NC(=O)[C@H](CC(=O)O)NC(=O)[C@H](CO)NC(=O)[C@H](CC(=O)O)NC(=O)[C@H](CCCNC(=N)N)NC(=O)[C@H](CCCNC(=N)N)NC(=O)[C@H](CSSC[C@H](NC1=O)C(=O)N[C@@H](CCCNC(=N)N)C(=O)N[C@@H](Cc1ccc(O)cc1)C(=O)N[C@H](Cc1c[nH]c5ccccc15)C(=O)N[C@@H](CCCCN)C(=O)N[C@@H](C(C)C)C(=O)N4)NC(=O)[C@H](CCCCN)NC(=O)[C@H](CCCCN)NC(=O)[C@H](CC(C)C)NC(=O)[C@H]([C@@H](C)CC)NC(=O)[C@H](CCCCN)NC(=O)[C@@H]1CCCN1C3=O)C(=O)N1CCC[C@H]1C(=O)NCC(=O)N[C@@H](C)C(=O)N2` [MCo-SST-01] (cyclo(ACICRY[dW]KVCGSGSDGGVCPKILKKCRRDSDCPG); disulfide 2-19, 4-26, 10-32 (inferred); ring closure inferred), the IC50 is 74.13 ± 0.07 µM in the assay on HT-29; 17.12 ± 0.05 µM in the assay on HUVEC; above 100 µM with MCF-7; 85.44 ± 0.08 µM in the assay with PC3; 0.005 µM in the assay with HUVEC migration.

(Values after PMC5062114, “Dual-targeting anti-angiogenic cyclic peptides as potential drug leads for cancer therapy” (Scientific Reports, 2016).)
